Reference: patent publication US11040952B2, “Phthalazinone compound, method for preparation thereof, pharmaceutical composition thereof, and use thereof” (SHANGHAI INSTITUTE OF MATERIA MEDICA, CHINESE ACADEMY OF …, priority 2017, dated 2021)

What was measured:
[1] = MTT assay for cytotoxicity; assay type: cell-based, Human; settings: human, HepG2.2.15 cells, half (50%) lethal concentration
Procedure: (§1) Human hepatoblastoma cell line HepG2.2.15 stably transfected with full-length HBV (provided by Shanghai Institute of Materia Medica, Chinese Academy of Sciences)
(§2) HepG2.2.15 cells were cultured and passaged according to conventional methods. DMEM containing 10% (v/v) bovine serum and the selective antibiotic G418 was used as a medium, the cells were cultured in an incubator at 37° C. under 5% CO2 for 8 days (the medium was exchanged on the 4th day).
(§3) The test compounds were formulated with DMSO into a 40 mM stock solution, which was then prepared into a solution at the defined highest concentration using a DMEM medium containing 10% Hyclone™ Fetal Bovine Serum, followed by diluting the same; the positive drug was lamivudine, which was also prepared into a solution at the defined concentration with the DMEM medium containing 10% Hyclone™ Fetal Bovine Serum.
HepG2.2.15 cells were seeded at 5×10^3 cells/well in a 96-well plate, and cultured for eight days in the presence of the compounds according to the above method, and then 200 μl of the supernatant was taken out, followed by addition of the MTT solution. After 4 hours of culture, a lysate was added. After 12 hours of culture, the OD570 was measured on a microplate reader. By comparing with the absorbance of the control well, the percentage of viable cells was calculated, and CC50, the concentration required for the reduction of cell viability by 50%, was calculated.

HBV = HBV DNA content in the supernatant of cell culture (real-time PCR); assay type: cell-based, hepatitis B virus (HBV); settings: Hepatitis B virus, HepG2.2.15, 192 h, inhibition of HBV DNA replication, HepG2.2.15 supernatant, 8 days
Procedure: as §1, §2, §3
HepG2.2.15 cells were treated with compounds at different concentrations for 8 days (the medium was exchanged on the 4th day), and the supernatant was aspirated, and the HBV DNA contained in the mature virus particles in the supernatant was quantitated by using a real-time PCR method.
1) The supernatant DNA from a 96-well plate, 200 μl/well, was collected, wherein the contents in the duplicate wells were collected into a same EP tube, and centrifuged at 4000 rcf for 5 min, and the supernatant was collected;
2) 200 μl of the supernatant was added into a 1.5 ml EP tube, added with 20 μl of proteinase K and 200 μl of Buffer AL (Qiagen, DNeasy® Blood & Tissue Kit), vortexed to be mixed thoroughly, and incubated at 56° C. for 10 min;
3) 200 μl of ethanol was added and vortexed to be mixed thoroughly;
4) all the liquid obtained from step 3) was added into a DNeasy Mini spin column (Qiagen, DNeasy® Blood & Tissue Kit) placed in a 2 ml waste liquid collection tube, and centrifuged at 6000 rcf for 1 min, and the supernatant was discarded;
5) the DNeasy Mini spin column was placed in a new 2 ml waste liquid collection tube, added with 500 μl of Buffer AW1 (Qiagen, DNeasy® Blood & Tissue Kit), and centrifuged at 6000 rcf for 1 min, and the supernatant was discarded;
6) the DNeasy Mini spin column was placed in a new 2 ml waste liquid collection tube, added with 500 μl of Buffer AW2, (Qiagen, DNeasy® Blood & Tissue Kit), and centrifuged at 20000 rcf for 3 min, and the supernatant was discarded;
7) the DNeasy Mini spin column was placed in anew 1.5 ml EP tube, 50 μl of Buffer AE (Qiagen, DNeasy® Blood & Tissue Kit) was pipetted and directly applied onto the membrane of the DNeasy Mini spin column, which was then left at room temperature for 5 min, and centrifuged at 6000 rcf for 1 min to elute the DNA from the membrane, the DNeasy Mini spin column was discarded, and the DNA sample was collected and stored at −20° C.
1) Standard curve: 1e^7-1e^4 IU/ml, the sample amount was 1 μl, a blank well was set so as to check whether the reaction system is polluted or not;
2) 1 μl of a DNA sample was added in sequence;
3) Addition of enzyme and reaction buffer: two tubes of the reaction solution were first added into the enzyme, mixed well and centrifuged slightly, placed on ice, added with the sample, followed by addition of 19 μl of the enzyme reaction solution, wherein, during the addition, the DNA sample should be sure of not being touched to cause contamination;
4) the sample was sealed with a sealing film and centrifuged;
Stage 2: 10 cycles • Step 1: 93° C., 45 s • Step 2: 55° C., 1 min Stage 3: 45 cycles • Step 1: 93° C., 30 s • Step 2: 55° C., 45 s
Detection: data were collected after completing the step 2 (55° C., 45 s) of the stage 3.
The experimental data were processed by using the Origin software and IC50 was calculated.

Row | SMILES | CC50 at 8 days [1] | IC50 (HBV)
1 | O=c1c2ccccc2c(-c2ccncc2)nn1Cc1ccc(Cl)cc1 [Compound I-1] | > 100000 nM | 7300 nM
2 | O=c1c2ccccc2c(-c2cccnc2)nn1Cc1ccc(Cl)cc1 [Compound I-2] | 98700 nM | 3100 nM
3 | Nc1ccc(-c2nn(Cc3ccc(Cl)cc3)c(=O)c3ccccc23)cn1 [Compound I-5] | 51800 nM | 1500 nM
4 | O=c1c2ccccc2c(-c2cccnc2Cl)nn1Cc1ccc(Cl)cc1 [Compound I-6] | > 100000 nM | 1700 nM
5 | Cc1ncccc1-c1nn(Cc2ccc(Cl)cc2)c(=O)c2ccccc12 [Compound I-7] | 48900 nM | 3800 nM
6 | N#Cc1ncccc1-c1nn(Cc2ccc(Cl)cc2)c(=O)c2ccccc12 [Compound I-8] | > 100000 nM | 5200 nM
7 | CN(C)c1ccc(-c2nn(Cc3ccc(Cl)cc3)c(=O)c3ccccc23)c(F)n1 [Compound I-13] | 32700 nM | 1200 nM
8 | CC(C)(C)Nc1ccc(-c2nn(Cc3ccc(Cl)cc3)c(=O)c3ccccc23)c(F)n1 [Compound I-14] | 10300 nM | 2100 nM
9 | COCNc1ccc(-c2nn(Cc3ccc(Cl)cc3)c(=O)c3ccccc23)c(F)n1 [Compound I-15] | > 100000 nM | 6200 nM
10 | O=c1c2ccccc2c(-c2ccc(NC3CC3)nc2F)nn1Cc1ccc(Cl)cc1 [Compound I-16] | 20100 nM | 500 nM
11 | O=c1c2ccccc2c(-c2ccc(NC3COC3)nc2F)nn1Cc1ccc(Cl)cc1 [Compound I-17] | > 100000 nM | 1600 nM
12 | O=c1c2ccccc2c(-c2ccc(N3CCC3)nc2F)nn1Cc1ccc(Cl)cc1 [Compound I-18] | 42900 nM | 1200 nM
13 | O=c1c2ccccc2c(-c2ccc(C(F)(F)F)nc2F)nn1Cc1ccc(Cl)cc1 [Compound I-19] | 77500 nM | 200 nM
14 | CN(C)CCNc1ccc(-c2nn(Cc3ccc(Cl)cc3)c(=O)c3ccccc23)c(F)n1 [Compound I-21] | > 100000 nM | 1600 nM
15 | O=c1c2ccccc2c(-c2ccc(CO)nc2F)nn1Cc1ccc(Cl)cc1 [Compound I-22] | > 100000 nM | 400 nM
16 | O=c1c2ccccc2c(-c2c(F)cc(F)nc2F)nn1Cc1ccc(Cl)cc1 [Compound I-23] | > 100000 nM | 600 nM
17 | [2H]C([2H])(c1ccc(Cl)cc1)n1nc(-c2ccc(C)nc2F)c2ccccc2c1=O [Compound I-25] | > 100000 nM | 1300 nM
18 | [2H]C([2H])(c1ccc(Cl)cc1)n1nc(-c2ccc(F)nc2F)c2ccccc2c1=O [Compound I-27] | > 100000 nM | 300 nM
19 | CC(=O)OCc1ccc(-c2nn(Cc3ccc(Cl)cc3)c(=O)c3ccccc23)c(F)n1 [Compound I-28] | 73100 nM | 1000 nM
20 | O=c1c2ccccc2c(-c2ccc(CN3CCOCC3)nc2F)nn1Cc1ccc(Cl)cc1 [Compound I-29] | > 100000 nM | 4600 nM
21 | O=c1c2ccccc2c(-c2ccc(NCC3CCOCC3)nc2F)nn1Cc1ccc(Cl)cc1 [Compound I-30] | > 100000 nM | 400 nM
22 | O=c1c2ccccc2c(-c2ccc(C3CC3)nc2F)nn1Cc1ccc(Cl)cc1 [Compound I-31] | > 100000 nM | 600 nM
23 | COCc1ccc(-c2nn(Cc3ccc(Cl)cc3)c(=O)c3ccccc23)c(F)n1 [Compound I-32] | > 100000 nM | 1000 nM
24 | CN(C)Cc1ccc(-c2nn(Cc3ccc(Cl)cc3)c(=O)c3ccccc23)c(F)n1 [Compound I-33] | > 100000 nM | 1300 nM

Row | SMILES | CC50 at 8 days [1] | IC50 (HBV)
25 | [2H]C([2H])([2H])c1ccc(-c2nn(Cc3ccc(Cl)cc3)c(=O)c3ccccc23)c(F)n1 [Compound I-34] | > 100000 nM | 200 nM
26 | [2H]C([2H])(OC)c1ccc(-c2nn(Cc3ccc(Cl)cc3)c(=O)c3ccccc23)c(F)n1 [Compound I-35] | > 100000 nM | 300 nM
27 | [2H]C([2H])([2H])OC([2H])([2H])c1ccc(-c2nn(Cc3ccc(Cl)cc3)c(=O)c3ccccc23)c(F)n1 [Compound I-36] | 89000 nM | 1500 nM
28 | [2H]C([2H])(c1ccc(-c2nn(Cc3ccc(Cl)cc3)c(=O)c3ccccc23)c(F)n1)N(C)C [Compound I-37] | 95000 nM | 2700 nM
29 | [2H]C([2H])(NC)c1ccc(-c2nn(Cc3ccc(Cl)cc3)c(=O)c3ccccc23)c(F)n1 [Compound I-38] | 81000 nM | 800 nM
30 | O=c1c2ccccc2c(-c2cc(Cl)cnc2F)nn1Cc1ccc(Cl)cc1 [Compound I-39] | > 25000 nM | 210 nM
31 | N#Cc1ccc(Cn2nc(-c3cc(Cl)cnc3F)c3ccccc3c2=O)cc1 [Compound I-40] | > 100000 nM | 51 nM
32 | N#Cc1ccc(Cn2nc(-c3cc(Cl)cnc3F)c3ccccc3c2=O)c(Cl)c1 [Compound I-41] | 46600 nM | 108 nM
33 | N#Cc1ccc(Cn2nc(-c3cc(Cl)cnc3F)c3ccccc3c2=O)c(F)c1 [Compound I-42] | 33500 nM | 378 nM
34 | N#Cc1ccc(Cn2nc(-c3cc(O)cnc3F)c3ccccc3c2=O)cc1 [Compound I-43] | > 100000 nM | 1570 nM
35 | Cc1cnc(F)c(-c2nn(Cc3ccc(C#N)cc3)c(=O)c3ccccc23)c1 [Compound I-44] | 31500 nM | 294 nM
36 | N#Cc1ccc(Cn2nc(-c3cc(CN4CCOCC4)cnc3F)c3ccccc3c2=O)cc1 [Compound I-45] | > 100000 nM | 2020 nM
37 | Cc1ccc(-c2nn(Cc3ccc(Cl)cc3)c(=O)c3ccc(F)cc23)c(F)n1 [Compound V-1] | > 100000 nM | 700 nM
38 | Cc1ccc(-c2nn(Cc3ccc(Cl)cc3)c(=O)c3cc(F)c(F)cc23)c(F)n1 [Compound V-2] | > 100000 nM | 300 nM
39 | Cc1ccc2c(=O)n(Cc3ccc(Cl)cc3)nc(-c3ccc(C)nc3F)c2c1 [Compound V-3] | > 100000 nM | 1500 nM
40 | Cc1ccc(-c2nn(Cc3ccc(Cl)cc3)c(=O)c3cc(C)c(C)cc23)c(F)n1 [Compound V-4] | > 100000 nM | 1300 nM
41 | COc1ccc2c(=O)n(Cc3ccc(Cl)cc3)nc(-c3ccc(C)nc3F)c2c1 [Compound V-5] | > 100000 nM | 3700 nM
42 | COc1cc2c(-c3ccc(C)nc3F)nn(Cc3ccc(Cl)cc3)c(=O)c2cc1OC [Compound V-6] | > 100000 nM | 2600 nM
43 | Cc1ccc(-c2nn(Cc3ccc(Cl)cc3)c(=O)c3ccc(C#N)cc23)c(F)n1 [Compound V-7] | > 100000 nM | 900 nM
44 | Cc1ccc(-c2nn(Cc3ccc(Cl)cc3)c(=O)c3ccc(C(F)(F)F)cc23)c(F)n1 [Compound V-8] | > 100000 nM | 1100 nM
45 | Cc1ccc(-c2nn(Cc3ccc(Cl)cc3)c(=O)c3cc(C(F)(F)F)c(C(F)(F)F)cc23)c(F)n1 [Compound V-9] | > 100000 nM | 1300 nM
46 | Cc1ccc(-c2nn(Cc3ccc(C#N)cc3)c(=O)c3cc(F)c(F)cc23)c(F)n1 [Compound V-10] | 47900 nM | 700 nM
47 | Cc1ccc(-c2nn(Cc3ccc(C#N)cc3)c(=O)c3cc(C)c(C)cc23)c(F)n1 [Compound V-11] | > 100000 nM | 1200 nM
